This is an account of results in patent EP0409528A2, “Platinum triamine antitumor agents containing substituted anilines” (ENGELHARD CORPORATION, priority 1989, dated 1991).

The subject of assay [1] is Sarcoma 180a. Briefly: Sarcoma 180 ascites (S180a) antitumor screening. The assay is classed as in vivo, female CFW mice. Conditions: for %ILS: single ip on day 1, in water; for %ILS / activity against Sarcoma 180a: ILS > 50% indicates activity; for Surv: survivors per group of 6 mice; for maximum ILS: Sarcoma 180a, at 20 mg/kg; for maximum ILS / activity against Sarcoma 180a: single ip administration on Day 1; for activity against Sarcoma 180a: result in words. The method, then: (§1) All of the compounds of the Examples were tested against Sarcoma 180a in female CFW mice via single ip administration on Day 1. Two of the compounds were active in this system: cis -[Pt(NH3)2(4-iodoaniline)CI]N03 (maximum ILS = 81% at 20 mg/kg) and cis -[Pt(NH3)2(3-iodoaniline)Cl]NO3 (maximum ILS = 83% at 20 mg/kg). The remaining compounds were not active. cis -[Pt(NH3)2(4-iodoaniline)Cl]NO3 was also tested against L1210 leukemia in female CDF1 mice via single ip administration on Day 1.
Female CFW mice (18-25g) were implanted with 2 x 10^6 cells ip on day zero. Compounds were administered in 0.5 mL of water ip on day one. Groups of 6 mice were used for each test dose as well as controls as defined above. The test was run for twice the MST of the control group, with survivors counted as dying on that day. An ILS of > 50% indicates activity. The tumor line was maintained through weekly transfer of 4 x 10^6 cells in CFW mice.

In assay [2] the test system is L1210 leukemia. Description: L1210 antitumor screening. The format is in vivo, female CDF1 mice. As for the experimental part:
as §1
L1210 screening was conducted according to a published method. See Rose, et al, Cancer Treat. Repts ., 1982 , 66 , 135, which is incorporated herein by reference. Female CDF, mice (16-22g) were implanted with 1 x 10^6 tumor cells ip on day zero. Compounds were administered in 0.5 mL of water ip on day one. Groups of 6 mice were used for each dose. A control group of mice received only tumor and 0.5 mL of water. A positive control group received tumor and 8 mg/kg cisplatin in 0.5 mL of 0.15 M NaCI. The test was terminated after three times the mean survival time (MST) of the control group. Surviving mice were counted as dying on that day. Activity was determined based on the percent increase in MST of test mice over controls (%ILS). An ILS of > 25% represents activity. The tumor line was maintained through weekly transfer of 5 x 10^4 cells in DBA/2 mice.

[3] abbreviates: S180a, dose 1.25 mg/kg ip day 1.

Values joined by “and” are separate entries in the source; they are usually repeats but may differ in a detail not shown here. Identical values can stand only once.

As to `[NH2][Pt]([NH2])([Cl])[Cl]` [Positive Control, cisplatin, reference compound], the “Positive Control SURV” value in assay [1] (S180a, positive control group: 8 mg/kg cisplatin in 0.15 M NaCl ip day 1, survivors per 6 mice) is 4/6 and 5/6 and 6/6; in assay [2] (L1210, positive control group: 8 mg/kg cisplatin in 0.15 M NaCl ip day 1, survivors per 6 mice), 5/6. For the same molecule, the “Positive Control %ILS” value in assay [1] (S180a, positive control group: 8 mg/kg cisplatin in 0.5 mL of 0.15 M NaCl ip day 1) was 92% and 95% and 98%; in assay [2] (L1210, positive control group: 8 mg/kg cisplatin in 0.5 mL of 0.15 M NaCl ip day 1) it was 190%.
With `N.N.Nc1cccc(I)c1.O=[N+]([O-])[O-].[Cl-].[Pt+2]` [cis-[Pt(NH3)2(3-iodoaniline)Cl]NO3], the “%ILS” value is recorded as -3% in assay [1] (S180a, dose 1.25 mg/kg); 9% in assay [1] (S180a, dose 2.5 mg/kg); 23% in assay [1] (S180a, dose 5 mg/kg); 51% in assay [1] (S180a, dose 10 mg/kg); 83% in assay [1] (S180a, dose 20 mg/kg); 66% in assay [1] (S180a, dose 40 mg/kg). For the same molecule, the Surv is on record as 0/6 in assay [1] (setting [3]); 0/6 in assay [1] (S180a, dose 2.5 mg/kg ip day 1); 0/6 in assay [1] (S180a, dose 5 mg/kg ip day 1); 1/6 in assay [1] (S180a, dose 10 mg/kg ip day 1); 2/6 in assay [1] (S180a, dose 20 mg/kg ip day 1); 4/6 in assay [1] (S180a, dose 40 mg/kg ip day 1). The “maximum ILS” value in assay [1] stood at 83%. For the same molecule, the “activity against Sarcoma 180a” value in assay [1] was “active”.
As to `N.N.Nc1ccc(Br)cc1.O=[N+]([O-])[O-].[Cl][Pt+]` [cis-[Pt(NH3)2(4-bromoaniline)Cl]NO3], the “%ILS” value is listed as 2% in assay [1] (S180a, dose 1.25 mg/kg); 7% in assay [1] (S180a, dose 2.5 mg/kg); 38% in assay [1] (S180a, dose 5 mg/kg); 44% in assay [1] (S180a, dose 10 mg/kg); -14% in assay [1] (S180a, dose 20 mg/kg); -74% in assay [1] (S180a, dose 40 mg/kg). Besides, the Surv in assay [1] (setting [3]) was 0/6; in assay [1] (S180a, dose 2.5 mg/kg ip day 1), 0/6; in assay [1] (S180a, dose 5 mg/kg ip day 1), 0/6; in assay [1] (S180a, dose 10 mg/kg ip day 1), 1/6; in assay [1] (S180a, dose 20 mg/kg ip day 1) it was 2/6; in assay [1] (S180a, dose 40 mg/kg ip day 1), 0/6.
`N.N.Nc1ccc(Cl)cc1.O=[N+]([O-])[O-].[Cl][Pt+]` [cis-[Pt(NH3)2(4-chloroaniline)Cl]NO3]: the “%ILS” value in assay [1] (S180a, dose 1.25 mg/kg) is recorded as 3%; in assay [1] (S180a, dose 2.5 mg/kg), 9%; in assay [1] (S180a, dose 5 mg/kg) it was 40%; in assay [1] (S180a, dose 10 mg/kg), 44%; in assay [1] (S180a, dose 20 mg/kg) it was -51%; in assay [1] (S180a, dose 40 mg/kg) it was -77%. Also, the Surv was 0/6 in assay [1] (setting [3]); 0/6 in assay [1] (S180a, dose 2.5 mg/kg ip day 1); 0/6 in assay [1] (S180a, dose 5 mg/kg ip day 1); 0/6 in assay [1] (S180a, dose 10 mg/kg ip day 1); 0/6 in assay [1] (S180a, dose 20 mg/kg ip day 1); 0/6 in assay [1] (S180a, dose 40 mg/kg ip day 1).
In the case of `N.N.Nc1ccc(F)cc1.O=[N+]([O-])[O-].[Cl-].[Pt+2]` [cis-[Pt(NH3)2(4-fluoroaniline)Cl]NO3, cis-[Pt(NH3)2(4-fluoraniline)Cl]NO3], the “%ILS” value in assay [1] (S180a, dose 1.25 mg/kg) is recorded as 6%; in assay [1] (S180a, dose 2.5 mg/kg) it was 14%; in assay [1] (S180a, dose 5 mg/kg), 27%; in assay [1] (S180a, dose 10 mg/kg) it was 45%; in assay [1] (S180a, dose 20 mg/kg), -48%; in assay [1] (S180a, dose 40 mg/kg), -77%. For the same molecule, the Surv was 0/6 in assay [1] (setting [3]); 0/6 in assay [1] (S180a, dose 2.5 mg/kg ip day 1); 0/6 in assay [1] (S180a, dose 5 mg/kg ip day 1); 0/6 in assay [1] (S180a, dose 10 mg/kg ip day 1); 1/6 in assay [1] (S180a, dose 20 mg/kg ip day 1); 0/6 in assay [1] (S180a, dose 40 mg/kg ip day 1).
Turning to `N.N.Nc1ccc(I)cc1.O=[N+]([O-])[O-].[Cl-].[Pt+2]` [cis-[Pt(NH3)2(4-iodoaniline)Cl]NO3, cis-(Pt(NH3)2(4-iodoaniline)Cl]NO3], the “%ILS” value in assay [1] (S180a, dose 0.63 mg/kg) is listed as 12%; in assay [1] (S180a, dose 1.25 mg/kg), -1%; in assay [1] (S180a, dose 2.5 mg/kg), 22%; in assay [1] (S180a, dose 5 mg/kg) it was 38%; in assay [1] (S180a, dose 10 mg/kg), 39%; in assay [1] (S180a, dose 20 mg/kg) it was 81%. Besides, in assay [2] (L1210, dose 1.25 mg/kg, single ip on day 1, ILS > 25% represents activity), the “%ILS” value turned out to be 14%. In addition, the Surv in assay [1] (S180a, dose 0.63 mg/kg ip day 1) is recorded as 0/6; in assay [1] (setting [3]), 0/6; in assay [1] (S180a, dose 2.5 mg/kg ip day 1) it was 0/6; in assay [1] (S180a, dose 5 mg/kg ip day 1) it was 0/6; in assay [1] (S180a, dose 10 mg/kg ip day 1) it was 0/6; in assay [1] (S180a, dose 20 mg/kg ip day 1), 2/6. In addition, the Surv in assay [2] (L1210, survivors per group of 6 mice, dose 1.25 mg/kg ip day 1) was 0/6. The “maximum ILS” value in assay [1] is reported as 81%; in assay [2] (L1210 leukemia, at 10 mg/kg, single ip administration on Day 1), 37%. The “activity against Sarcoma 180a” value in assay [1] is “active”. The “activity against L1210 leukemia” value in assay [2] (result in words, single ip administration on Day 1, ILS > 25% represents activity) is reported as “moderate level of activity”.
